Measured values: patent US10315996B2, “ROR gamma (RORγ) modulators” (LEAD PHARMA HOLDING B.V., priority 2015, dated 2019)

What follows are compounds tested against T1, RORγ (Homo sapiens, UniProt P51449) (assay: RORγ GAL4 reporter gene assay). Details: inhibition of RORγ activity, GAL4-RORγ-LBD luciferase reporter in 293FT cells, overnight incubation; read-out: mean pIC50 (converted).
T1 construct: expressed in transfected cells; host or cells: 293FT cells (Invitrogen), expression vector pFN26A (Promega)
T1 sequence (P51449 269-508 limits assumed): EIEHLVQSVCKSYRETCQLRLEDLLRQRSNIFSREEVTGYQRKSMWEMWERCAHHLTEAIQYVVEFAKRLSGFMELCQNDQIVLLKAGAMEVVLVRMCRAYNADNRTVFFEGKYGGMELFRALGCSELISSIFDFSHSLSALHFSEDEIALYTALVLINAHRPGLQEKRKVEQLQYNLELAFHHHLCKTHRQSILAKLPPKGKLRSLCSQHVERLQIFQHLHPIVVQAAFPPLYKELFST
Type: cell-based
Protocol: Example inhibitors 1-166 were tested for their ability to inhibit RORγ activity in a RORγ GAL4 reporter gene assay. The assay procedure and results are described below.
RORγ GAL4 Reporter Gene Assay Description
A GAL4 one-hybrid reporter system employing luciferase readout was established to determine inhibition of RORγ in 293FT cells. The RORγ ligand-binding domain (LBD) was fused to the yeast GAL4 DNA binding domain (DBD) and placed under the control of the human cytomegalovirus (CMV) immediate early promoter, using expression vector pFN26A (Promega) and standard recombinant DNA cloning methods. To serve as a control in the assay, a similar vector was generated in which the GAL4-DBD was fused to Herpes simplex virus protein 16 (VP16), a constitutive transcriptional activator.
To monitor the inhibitory effect of compounds on RORγ, a transcriptional reporter construct was used. The pGL4.35 vector (Promega) contains nine copies of the GAL4 Upstream Activator Sequence (UAS). This sequence drives the transcription of the luciferase reporter gene luc2P in response to binding of a fusion protein containing the GAL4 DNA binding domain, as for example expressed by the GAL4-RORγ-LBD and GAL4-VP16 expression vectors described above. To allow a GAL4 fusion protein to drive the expression of the luciferase reporter, the pGL4.35 expression vector and the appropriate GAL4 fusion protein expression vector were bulk transfected in the 293FT cells using standard transfection techniques.
The day after transfection, cells were plated into 96 well plates, test compound was added and the plates were incubated overnight. Subsequently, the firefly luciferase activity was quantified using luciferase detection reagent and luminescence readout.
Detailed Assay Description
293FT cells (Invitrogen) were transfected with a GAL4 fusion protein expression vector (as described above) and the transcriptional reporter construct (pGL4.35, Promega). 60 μL of TransIT-293 transfection reagent (Mirus Bio) was added drop wise to 1500 μl Opti-MEM I Reduced Serum Medium (Invitrogen) and incubated at room temperature (RT) for 5 to 20 minutes. 1500 μL of this reagent mixture was added to 5 μg of GAL4 fusion protein expression vector and 5 μg of the transcriptional reporter construct, and incubated at RT for 20 minutes.
To harvest 293FT cells from a T75 flask, first the culture medium was taken off the cells. Subsequently, the cells were washed with Phosphate Buffered Saline (PBS) (Lonza), after which the PBS was removed. To dissociate the cells, 1 ml of TrypLE Express (Invitrogen) was added to the flask, followed by incubation at RT until the cells visually started to detach. Cells were collected in 5 mL of assay medium (DMEM culture medium (Lonza), 10% dialyzed FBS (Invitrogen) and Pen/Strep (Lonza)) to achieve a single cell suspension. 10×10^6 cells were spun down and re-suspended in 10 mL of assay medium. Subsequently, the cell suspension was added to the transfection mix tube, and then transferred as a whole to a T75 flask (Greiner), followed by overnight (16-24 hours) incubation at 37° C. and 5% CO2.
For compound screening, the cells were harvested (as described above) and counted. 13×10^6 cells were spun down, the supernatant was aspirated and the cells were re-suspended in 17.3 mL of assay medium obtaining a cell suspension of 0.75×10^6 cells/mL. 80 μL of cell suspension (60,000 cells) was plated per well into a white, flat bottom, tissue culture treated, 96 well screening plates (Greiner).
Test compounds were diluted, starting from a 10 mM dimethylsulfoxide (DMSO) stock solution, to serial dilutions in DMSO at 500× the final test concentration. Subsequently, these solutions were diluted to 5× the final test concentration in two 10-fold-dilution steps in assay medium. The final DMSO concentration of the 5× test compound solution was 1%. […]

Row | IC50 | Structure (SMILES)
1 | ≤ 10 nM | COc1ccccc1N(C)C(=O)c1ccc(NC(=O)Cc2ccc(S(=O)(=O)CC3CC3)cc2)cc1C [Example 122, 4-[2-(4-cyclopropylmethanesulfonylphenyl)acetamido]-N-(2-methoxyphenyl)-N,2-dimethylbenzamide]
2 | ≤ 10 nM | COc1ccccc1N(C)C(=O)c1ccc(NC(=O)Cc2ccc(S(=O)(=O)CC3CC3)cc2)cc1F [Example 124, 4-[2-(4-cyclopropylmethanesulfonylphenyl)acetamido]-2-fluoro-N-(2-methoxyphenyl)-N-methylbenzamide]
3 | ≤ 10 nM | CC1(N(C(=O)c2ccc(NC(=O)Cc3ccc(S(=O)(=O)CC4CC4)cc3)cc2)c2ccccc2)CC1 [Example 142, 4-[2-(4-cyclopropylmethanesulfonylphenyl)acetamido]-N-(1-methylcyclopropyl)-N-phenylbenzamide]
4 | ≤ 100 nM | CCN(C(=O)c1ccc(NC(=O)Cc2ccc(S(=O)(=O)CC3CC3)cc2)cc1OC)c1ccccc1 [Example 58, 4-[2-(4-cyclopropylmethanesulfonylphenyl)acetamido]-N-ethyl-2-methoxy-N-phenylbenzamide]
5 | ≤ 1000 nM | CCN(C(=O)c1ccc(NC(=O)Cc2ccc(S(=O)(=O)NC3CC3)cc2)cc1Cl)c1ccccc1 [Example 112, 2-chloro-4-{2-[4-(cyclopropylsulfamoyl)phenyl]acetamido}-N-ethyl-N-phenylbenzamide]
6 | ≤ 10 nM | CCN(C(=O)c1ccc(NC(=O)Cc2ccc(S(=O)(=O)CC3CC3)cc2)cc1F)c1ccccc1 [Example 99, 4-[2-(4-cyclopropylmethanesulfonylphenyl)acetamido]-N-ethyl-2-fluoro-N-phenylbenzamide]
7 | ≤ 10 nM | CCN(C(=O)c1ccc(NC(=O)Cc2ccc(S(=O)(=O)CC3CC3)cc2)cc1)c1ccccc1 [Example 16, 4-[2-(4-cyclopropylmethanesulfonylphenyl)acetamido]-N-ethyl-N-phenylbenzamide]
8 | ≤ 100 nM | CCN(C(=O)c1ccc(NC(=O)Cc2ccc(S(=O)(=O)CC3CC3)cc2)cc1Cl)c1cccc(C)c1C [Example 120, 2-chloro-4-[2-(4-cyclopropylmethanesulfonylphenyl)acetamido]-N-(2,3-dimethylphenyl)-N-ethylbenzamide]
9 | ≤ 1000 nM | CCN(C(=O)c1ccc(NC(=O)Cc2ccc(S(=O)(=O)NC3CC3)cc2)nc1)c1ccccc1 [Example 54, 6-{2-[4-(cyclopropylsulfamoyl)phenyl]acetamido}-N-ethyl-N-phenylpyridine-3-carboxamide]

Continued, compound first:

Row | Structure (SMILES) | IC50
10 | Cc1ccc(N(C(=O)c2ccc(NC(=O)Cc3ccc(S(=O)(=O)NC4CC4)cc3)cc2)C(C)(C)C2CCCO2)cc1 (centres unmarked) [Example 132, 4-{2-[4-(cyclopropylsulfamoyl)phenyl]acetamido}-N-(4-methylphenyl)-N-[2-(oxolan-2-yl)propan-2-yl]benzamide] | ≤ 100 nM
11 | O=C(Cc1ccc(S(=O)(=O)CC2CC2)cc1)Nc1ccc(C(=O)N(c2ccccn2)C2CCOC2)cc1 (centres unmarked) [Example 136, 4-[2-(4-cyclopropylmethanesulfonylphenyl)acetamido]-N-(oxolan-3-yl)-N-(pyridin-2-yl)benzamide] | ≤ 100 nM
12 | O=C(Cc1ccc(S(=O)(=O)CC2CC2)cc1)Nc1ccc(C(=O)N2CCCCC2CN2CCOCC2)cc1 (centres unmarked) [Example 39, 2-(4-cyclopropylmethanesulfonylphenyl)-N-{4-[2-(morpholin-4-ylmethyl)piperidine-1-carbonyl]phenyl}acetamide] | ≤ 1000 nM
13 | CC(C)(C)NC(=O)c1ccc(NC(=O)Cc2ccc(S(=O)(=O)CC3CC3)cc2)cc1 [Example 11, N-tert-butyl-4-[2-(4-cyclopropylmethanesulfonylphenyl)acetamido]benzamide] | ≤ 1000 nM
14 | CCN(C(=O)c1ccc(NC(=O)Cc2ccc(S(=O)(=O)CC3CC3)cc2)cc1)c1nnc(C)s1 [Example 96, 4-[2-(4-cyclopropylmethanesulfonylphenyl)acetamido]-N-ethyl-N-(5-methyl-1,3,4-thiadiazol-2-yl)benzamide] | ≤ 100 nM
15 | CC(C)(C)N(C(=O)c1ccc(NC(=O)Cc2ccc(S(=O)(=O)NC3CC3)cc2)cc1)c1ccccc1 [Example 131, N-tert-butyl-4-{2-[4-(cyclopropylsulfamoyl)phenyl]acetamido}-N-phenylbenzamide] | ≤ 10 nM
16 | CC(C)(C1CCCO1)N(C(=O)c1ccc(NC(=O)Cc2ccc(S(=O)(=O)CC3CC3)nc2)cc1)c1ccccc1 (centres unmarked) [Example 160, 4-[2-(6-cyclopropylmethanesulfonylpyridin-3-yl)acetamido]-N-[2-(oxolan-2-yl)propan-2-yl]-N-phenylbenzamide] | ≤ 100 nM
17 | CC(N(C(=O)c1ccc(NC(=O)Cc2ccc(S(=O)(=O)NC3CC3)cc2)cc1)c1ccccc1)C(F)(F)F (centres unmarked) [Example 148, 4-{2-[4-(cyclopropylsulfamoyl)phenyl]acetamido}-N-phenyl-N-(1,1,1-trifluoropropan-2-yl)benzamide] | ≤ 100 nM
18 | CCN(C(=O)c1ccc(NC(=O)Cc2ccc(S(=O)(=O)NC3CC3)cc2)cc1)c1cccc(C(=O)OC)c1 [Example 47, methyl 3-(N-ethyl-4-{2-[4-(cyclopropylsulfamoyl)phenyl]acetamido}benzamido) benzoate] | ≤ 100 nM
19 | N#CC(NC(=O)c1ccc(NC(=O)Cc2ccc(S(=O)(=O)CC3CC3)cc2)cc1)c1ccccc1 (centres unmarked) [Example 73, N-[cyano(phenyl)methyl]-4-[2-(4-cyclopropylmethanesulfonylphenyl)acetamido]benzamide] | ≤ 1000 nM
20 | COc1ccccc1[C@H](C)NC(=O)c1ccc(NC(=O)Cc2ccc(S(=O)(=O)CC3CC3)cc2)cc1 [Example 70, 4-[2-(4-cyclopropylmethanesulfonylphenyl)acetamido]-N-[(1S)-1-(2-methoxyphenyl)ethyl]benzamide] | ≤ 1000 nM
21 | Cc1ccc(N(C(=O)c2ccc(NC(=O)Cc3ccc(S(=O)(=O)CC4CC4)cc3)cc2)C(C)(C)C2CCCO2)cc1 (centres unmarked) [Example 133, 4-[2-(4-cyclopropylmethanesulfonylphenyl)acetamido]-N-(4-methylphenyl)-N-[2-(oxolan-2-yl)propan-2-yl]benzamide] | ≤ 100 nM
22 | O=C(Cc1ccc(S(=O)(=O)CC2CC2)cc1)Nc1ccc(C(=O)N(Cc2ccccc2)Cc2ccccc2)cc1 [Example 12, N,N-dibenzyl-4-[2-(4-cyclopropylmethanesulfonylphenyl)acetamido]benzamide] | ≤ 100 nM
23 | CCCN(C(=O)c1ccc(NC(=O)Cc2ccc(S(=O)(=O)CC3CC3)cc2)cc1)c1cc(C)on1 [Example 87, 4-[2-(4-cyclopropylmethanesulfonylphenyl)acetamido]-N-(5-methyl-1,2-oxazol-3-yl)-N-propylbenzamide] | ≤ 10 nM
24 | CCCN(C(=O)c1ccc(NC(=O)Cc2ccc(S(=O)(=O)NC3CC3)cc2)cc1)c1cccnc1 [Example 65, 4-{2-[4-(cyclopropylsulfamoyl)phenyl]acetamido}-N-propyl-N-(pyridin-3-yl)benzamide] | ≤ 1000 nM
25 | CC(C)(C)N(Cc1ccccc1)C(=O)c1ccc(NC(=O)Cc2ccc(S(=O)(=O)CC3CC3)cc2)cc1 [Example 113, N-benzyl-N-tert-butyl-4-[2-(4-cyclopropylmethanesulfonylphenyl)acetamido]benzamide] | ≤ 10 nM
26 | CCN(C(=O)c1ccc(NC(=O)Cc2ccc(S(=O)(=O)CC3CC3)cc2)cc1)c1cc(C)on1 [Example 89, 4-[2-(4-cyclopropylmethanesulfonylphenyl)acetamido]-N-ethyl-N-(5-methyl-1,2-oxazol-3-yl)benzamide] | ≤ 10 nM
